One data set can be described thus: Ionophore activity. The conditions noted are these: larger number indicates weaker ionophore activity.
A further data set deals with p53^R175H. In words: Immunofluorescence with conformation-specific antibodies PAB1620/PAB240. Type of data set: cell-based.
A further data set has as its system H1299 cells (p53 null). In words: Oxidative stress detection, CellROX Green, flow cytometry. To be noted: 0.75 μM compound, 24 h, relative to ZMC1. Type of data set: cell-based. For orientation: A flow cytometer gives signals particle by particle.
In the next data set the target is Human hERG (Homo sapiens, UniProt Q12809). In words: CEREP safety screen, hERG [3H]-dofetilide. Type of data set: binding. To be noted: 10 μM. (In general: The hERG channel carries a current that helps repolarise heart muscle cells.)
Human hERG, sequence (Q12809 whole entry): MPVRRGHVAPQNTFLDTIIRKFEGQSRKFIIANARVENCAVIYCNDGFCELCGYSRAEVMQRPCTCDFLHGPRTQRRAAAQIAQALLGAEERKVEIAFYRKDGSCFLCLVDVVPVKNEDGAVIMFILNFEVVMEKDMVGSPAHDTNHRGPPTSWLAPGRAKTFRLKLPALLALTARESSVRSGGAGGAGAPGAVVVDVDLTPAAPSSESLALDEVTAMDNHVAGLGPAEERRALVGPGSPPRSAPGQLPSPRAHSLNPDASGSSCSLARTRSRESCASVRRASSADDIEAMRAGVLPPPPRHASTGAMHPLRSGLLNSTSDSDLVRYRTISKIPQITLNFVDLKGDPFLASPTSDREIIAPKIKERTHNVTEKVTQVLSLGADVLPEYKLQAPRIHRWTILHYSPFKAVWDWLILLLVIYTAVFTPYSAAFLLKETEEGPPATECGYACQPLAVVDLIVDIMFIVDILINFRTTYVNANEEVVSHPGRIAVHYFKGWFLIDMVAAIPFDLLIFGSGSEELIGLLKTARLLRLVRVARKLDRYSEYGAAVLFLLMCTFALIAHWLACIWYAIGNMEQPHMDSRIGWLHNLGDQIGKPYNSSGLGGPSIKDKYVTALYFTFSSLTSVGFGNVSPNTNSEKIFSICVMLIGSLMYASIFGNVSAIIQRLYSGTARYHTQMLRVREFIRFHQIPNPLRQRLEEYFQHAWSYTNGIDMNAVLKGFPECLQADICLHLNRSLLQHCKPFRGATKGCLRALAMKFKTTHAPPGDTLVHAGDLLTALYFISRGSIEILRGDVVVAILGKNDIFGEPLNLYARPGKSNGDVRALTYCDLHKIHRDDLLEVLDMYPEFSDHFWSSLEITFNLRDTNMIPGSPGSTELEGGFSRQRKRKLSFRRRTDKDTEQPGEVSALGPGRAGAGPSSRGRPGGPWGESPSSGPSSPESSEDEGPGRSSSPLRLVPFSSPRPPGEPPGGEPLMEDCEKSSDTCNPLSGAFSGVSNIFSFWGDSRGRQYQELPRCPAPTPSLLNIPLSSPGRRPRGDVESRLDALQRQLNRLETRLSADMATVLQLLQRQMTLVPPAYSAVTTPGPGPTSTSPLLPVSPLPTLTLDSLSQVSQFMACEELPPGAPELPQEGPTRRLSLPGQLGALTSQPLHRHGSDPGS
The nature of data set [1]: Hydrolytic stability in SGF and PBS. Type of data set: physicochemical. The conditions noted are these: 6 h.
In another data set the test system is TOV-112D cells. Kind of data set: Combination of C85 with γ-irradiation or etoposide, cell growth inhibition. Type of data set: cell-based. The conditions noted are these: Homo sapiens, TOV112D, read-out: EC50, C85 only.
Another data set deals with TOV-112D (p53^R175H). Kind of data set: Cell growth inhibition assay. Type of data set: cell-based. The conditions noted are these: Homo sapiens, TOV112D, 72 h, read-out: EC50 TOV-112D.
The target in data set [2] is Human Norepinephrine Transporter (Homo sapiens, UniProt P23975). In words: CEREP safety screen, norepinephrine transporter. It is filed as binding. To be noted: 10 μM.
Human Norepinephrine Transporter, sequence (P23975 whole entry): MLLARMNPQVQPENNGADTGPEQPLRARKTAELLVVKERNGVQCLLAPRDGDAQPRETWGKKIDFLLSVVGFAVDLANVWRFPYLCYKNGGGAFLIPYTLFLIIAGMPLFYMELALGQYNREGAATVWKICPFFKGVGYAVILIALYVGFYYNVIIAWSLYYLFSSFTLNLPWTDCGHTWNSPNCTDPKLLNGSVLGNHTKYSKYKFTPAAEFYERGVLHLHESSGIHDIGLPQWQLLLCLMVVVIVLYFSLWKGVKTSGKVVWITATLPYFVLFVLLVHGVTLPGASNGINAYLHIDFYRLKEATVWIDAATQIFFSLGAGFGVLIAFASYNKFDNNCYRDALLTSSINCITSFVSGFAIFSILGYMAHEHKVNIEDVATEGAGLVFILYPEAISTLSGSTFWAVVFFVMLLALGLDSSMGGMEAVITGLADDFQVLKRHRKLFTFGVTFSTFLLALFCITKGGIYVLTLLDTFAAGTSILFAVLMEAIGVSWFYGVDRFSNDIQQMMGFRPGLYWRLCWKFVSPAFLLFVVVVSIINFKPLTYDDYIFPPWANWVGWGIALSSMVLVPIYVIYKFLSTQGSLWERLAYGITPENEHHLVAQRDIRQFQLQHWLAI
Another data set can be described thus: Caco-2 permeability. It is filed as in vitro ADME. To be noted: human. In general terms: Caco-2 cells form a polarised layer with tight junctions and transporters.
The conditions of data set [3]: cited from earlier work.
For data set [4], the system named is Rat Sodium Channel site 2. In words: CEREP safety screen, sodium channel site 2. To be noted: 10 μM. Type of data set: binding.
Data set [5] deals with p53 wild type and p53 null cell lines. In words: Cell kill in p53 wild type and p53 null cell lines. Type of data set: cell-based. To be noted: allele selectivity, Suppl. Figure S1.

Structures are written as SMILES. Counter-ions that a name gives are not always drawn. Like-named read-outs stand apart in the source and are kept apart here.

Consider `C/C(=N\Nc1nccn1C)c1ccccn1` [C78, 2-(1-(2-(1-Methyl-1H-imidazol-2-yl)hydrazono)ethyl)pyridine HCl], for which, in “Ionophore activity”, the “Ionophore Ji drug/Ji DMSO” value is 11.8 -log[mol/m^2s]. Besides, the “Refolding p53^R175H → wild type” value in the data set with p53^R175H was “YES”.
The term EC50 denotes the midpoint of the concentration-response curve. Consider `C/C(=N\Nc1nc2ccccc2n1CCN1CCC(F)(F)C1)c1ccccn1` [C85, (E)-1-(2-(3,3-Difluoropyrrolidin-1-yl)ethyl)-2-(2-(1-(pyridin-2-yl)ethylidene)hydrazineyl)-1H-benzo[d]imidazole HCl], for which, in “Ionophore activity”, the “Ionophore Ji drug/Ji DMSO” value is 12.2 -log[mol/m^2s]. In addition, in the data set with H1299 cells (p53 null), the “ROS (ROS/ZMC1 ROS)” value came to 0.8. Further, the “Refolding p53^R175H → wild type” value with p53^R175H is “could induce a wild-type conformational change and YES”. For the same compound, the “hERG inhibition, in words” value at Human hERG was “potent hERG inhibition”. The Compound remaining in data set [1] (SGF pH 1–2, 37 °C) is recorded as more than 82%; in [1] (SGF pH 1–2, room temperature), more than 92%. Further, the half-maximal effective concentration (EC50) in the data set on TOV-112D cells (light or radiation study, 72 h) stood at 710 nM; with TOV-112D cells it was 570 nM.
Consider `C/C(=N\NC(=S)N1CCC1)c1ncccc1C` [A12, (E)-N′-(1-(3-Methylpyridin-2-yl)ethylidene)azetidine-1-carbothiohydrazide], for which the concentration giving a half-maximal response (EC50) in the data set on TOV-112D (p53^R175H) came to 11 nM. Moreover, the “Ionophore Ji drug/Ji DMSO” value in “Ionophore activity” was 11.6 -log[mol/m^2s].
Consider `C/C(=N\NC(=S)N1CCC1)c1cccc(C)n1` [A11, (E)-N′-(1-(6-Methylpyridin-2-yl)ethylidene)azetidine-1-carbothiohydrazide], for which the “Ionophore Ji drug/Ji DMSO” value in the data set “Ionophore activity” was 12.6 -log[mol/m^2s]. For the same compound, the “Refolding p53^R175H → wild type” value with p53^R175H is “YES”.
Take `C/C(=N\Nc1nc2ccccc2o1)c1cc(OCCN(C)C)ccn1` [C35, (E)-2-((2-(1-(2-(Benzo[d]oxazol-2-yl)hydrazineylidene)ethyl)pyridin-4-yl)oxy)-N,N-dimethylethan-1-amine HCl]: the “Refolding p53^R175H → wild type” value in the data set on p53^R175H is “YES”.
As to `C/C(=N\Nc1nc2ccccc2s1)c1cc(OCCN(C)C)ccn1` [C28, (E)-2-((2-(1-(2-(Benzo[d]thiazol-2-yl)hydrazineylidene)ethyl)pyridin-4-yl)oxy)-N,N-dimethylethan-1-amine HCl], the “Activity against the norepinephrine transporter, in words” value in [2] is listed as “showed activity”. The “Ionophore Ji drug/Ji DMSO” value in the data set “Ionophore activity” is 11.6 -log[mol/m^2s]. Moreover, in the data set on p53^R175H, the “Refolding p53^R175H → wild type” value is given as “YES”. Further, the “hERG inhibition, in words” value on Human hERG was “strong hERG inhibition”.
With `C/C(=N\Nc1nc2ccccc2s1)c1ncccn1` [C77, (E)-2-(2-(1-(Pyrimidin-2-yl)ethylidene)hydrazineyl)benzo[d]thiazole AcOH], the “Activity against the norepinephrine transporter, in words” value in [2] is given as “showed activity”. Besides, in the data set “Ionophore activity”, the “Ionophore Ji drug/Ji DMSO” value was 11.8 -log[mol/m^2s].
As a reminder, the Papp is a coefficient for how fast a substance crosses the barrier. Regarding `C/C(=N\NC(=S)N(C)C)c1ccccn1` [A1, (E)-N,N-Dimethyl-2-(1-(pyridin-2-yl)ethylidene)hydrazine-1-carbothioamide], the “Ionophore Ji drug/Ji DMSO” value in the data set “Ionophore activity” was 12.8 -log[mol/m^2s]. For the same compound, the “Refolding p53^R175H → wild type” value in the data set with p53^R175H is “YES”. The compound also displayed an apparent permeability (Papp) at 90 min, 5 μM in “Caco-2 permeability” of 7.3 ± 0.1 ×10⁻⁶ cm/s.
For the compound `C/C(=N\NC(=S)N1CCC1)c1cnccn1` [A10, (E)-N′-(1-(Pyrazin-2-yl)ethylidene)azetidine-1-carbothiohydrazide], the EC50 in the data set with TOV-112D (p53^R175H) came out at 22 nM. Further, in “Ionophore activity”, the “Ionophore Ji drug/Ji DMSO” value is 11.8 -log[mol/m^2s]. The “Refolding p53^R175H → wild type” value in the data set with p53^R175H is recorded as “YES”.
Consider `COCCOc1ccc2nc(N/N=C(\C)c3ccccn3)sc2c1` [C23, (E)-6-(2-Methoxyethoxy)-2-(2-(1-(pyridin-2-yl)ethylidene)hydrazineyl)benzo[d]thiazole AcOH], for which the “Ionophore Ji drug/Ji DMSO” value in “Ionophore activity” was 11.6 -log[mol/m^2s]. The “Refolding p53^R175H → wild type” value in the data set on p53^R175H was “YES”.
As to `C/C(=N\Nc1nc2ccccc2n1CCN1CCOCC1)c1ccccn1` [C42, (E)-4-(2-(2-(2-(1-(Pyridin-2-yl)ethylidene)hydrazineyl)-1H-benzo[d]imidazol-1-yl)ethyl)morpholine HCl], in “Ionophore activity”, the “Ionophore Ji drug/Ji DMSO” value is 11.6 -log[mol/m^2s]. The “ROS (ROS/ZMC1 ROS)” value in the data set on H1299 cells (p53 null) is 1.0. Further, in the data set with p53^R175H, the “Refolding p53^R175H → wild type” value is “YES”. In addition, the “hERG inhibition, in words” value on Human hERG is “strong hERG inhibition”.
`CS/C(=N\N=C(/C)c1ccccn1)N1CCC1` [A5, Methyl (Z)-N-((E)-1-(Pyridin-2-yl)ethylidene)azetidine-1-carbohydrazonothioate]: the “Ionophore Ji drug/Ji DMSO” value in “Ionophore activity” is 12.4 -log[mol/m^2s].
Consider `C/C(=N\Nc1nc2ccccc2s1)c1cc(N(C)C)ccn1` [C21, (E)-2-(1-(2-(Benzo[d]thiazol-2-yl)hydrazineylidene)ethyl)-N,N-dimethylpyridin-4-amine], for which the “Ionophore Ji drug/Ji DMSO” value in “Ionophore activity” is 11.6 -log[mol/m^2s]. Also, the “Refolding p53^R175H → wild type” value with p53^R175H was “YES”.
For the compound `C/C(=N\Nc1nc2ccccc2n1C)c1ccccn1` [C9, (E)-1-Methyl-2-(2-(1-(pyridin-2-yl)ethylidene)hydrazinyl)-1H-benzo[d]imidazole], the “Ionophore Ji drug/Ji DMSO” value in “Ionophore activity” was 11.6 -log[mol/m^2s]. Also, in the data set on p53^R175H, the “Refolding p53^R175H → wild type” value was “YES”. Moreover, the “hERG inhibition, in words” value on Human hERG was “strong hERG inhibition”. Also, the Aqueous solubility result in data set [3] is recorded as “low aqueous solubility”.
Take `C/C(=N\NC(=S)N1CCC1)c1ccccc1` [A9, (E)-N′-(1-Phenylethylidene)azetidine-1-carbothiohydrazide]: the “Ionophore Ji drug/Ji DMSO” value in “Ionophore activity” is 11.6 -log[mol/m^2s].
The same measure, in the same setting: the value for `C/C(=N\Nc1nc2ccccc2s1)c1cc(OCCN2CCN(C)CC2)ccn1` [C64, (E)-2-(2-(1-(4-(2-(4-Methylpiperazin-1-yl)ethoxy)pyridin-2-yl)ethylidene)hydrazineyl)benzo[d]thiazole HCl] was 11.6 -log[mol/m^2s].
On to `C/C(=N\Nc1nc2ccccc2n1C)c1ncccn1` [C89, (E)-1-Methyl-2-(2-(1-(pyrimidin-2-yl)ethylidene)hydrazineyl)-1H-benzo[d]imidazole HCl], for which the “Ionophore Ji drug/Ji DMSO” value in “Ionophore activity” was 12.0 -log[mol/m^2s]. In addition, on Human hERG, the “hERG inhibition, in words” value is on record as “strong hERG inhibition”.
For `C/C(=N\Nc1ccc2ccccc2n1)c1ccccn1` [C22, (E)-2-(2-(1-(Pyridin-2-yl)ethylidene)hydrazineyl)quinoline], the “Ionophore Ji drug/Ji DMSO” value in “Ionophore activity” is 11.6 -log[mol/m^2s]. The “Refolding p53^R175H → wild type” value in the data set with p53^R175H is recorded as “YES”.
On to `C/C(=N\NC(=S)N1CCC1)c1cc(N(C)C)ccn1` [A14, (E)-N′-(1-(4-(Dimethylamino)pyridin-2-yl)ethylidene)azetidine-1-carbothiohydrazide], for which, in “Ionophore activity”, the “Ionophore Ji drug/Ji DMSO” value is 12.5 -log[mol/m^2s].
On to `C/C(=N\Nc1nc2ccccc2n1CCN(C)C)c1ccccn1` [C27, (E)-N,N-Dimethyl-2-(2-(2-(1-(pyridin-2-yl)ethylidene)hydrazineyl)-1H-benzo[d]imidazol-1-yl)ethan-1-amine HCl], for which the “Ionophore Ji drug/Ji DMSO” value in “Ionophore activity” is 11.6 -log[mol/m^2s]. The “Refolding p53^R175H → wild type” value in the data set with p53^R175H was “YES”.
Take `C/C(=N\NC(=S)NC1CCN(c2ccccn2)CC1)c1ccccn1` [A4, (E)-2-(1-(Pyridin-2-yl)ethylidene)-N-(1-(pyridin-2-yl)piperidin-4-yl)hydrazine-1-carbothioamide]: the “Ionophore Ji drug/Ji DMSO” value in the data set “Ionophore activity” was 14.5 -log[mol/m^2s].
Consider `CC(C)(C)/C(=N\NC(=S)N1CCC1)c1ccccn1` [A13, (E)-N′-(2,2-Dimethyl-1-(pyridin-2-yl)propylidene)azetidine-1-carbothiohydrazide], for which the “Ionophore Ji drug/Ji DMSO” value in the data set “Ionophore activity” is 14.4 -log[mol/m^2s].
As to `COC/C(=N\Nc1nc2ccccc2s1)c1ccccn1` [C65, (Z)-2-(2-(2-Methoxy-1-(pyridin-2-yl)ethylidene)hydrazineyl)benzo[d]thiazole], in the data set “Ionophore activity”, the “Ionophore Ji drug/Ji DMSO” value is 11.6 -log[mol/m^2s]. For the same compound, the “Refolding p53^R175H → wild type” value with p53^R175H is listed as “YES”.
For `C/C(=N\Nc1nc2ccccc2n1CCN1CCCC1)c1ccccn1` [C69, (E)-2-(2-(1-(Pyridin-2-yl)ethylidene)hydrazineyl)-1-(2-(pyrrolidin-1-yl)ethyl)-1H-benzo[d]imidazole HCl], the “Activity against the norepinephrine transporter, in words” value in data set [2] is “showed activity”. In the data set on TOV-112D (p53^R175H), the concentration for a half-maximal effect (EC50) worked out at 93 nM. Also, the “Ionophore Ji drug/Ji DMSO” value in the data set “Ionophore activity” was 11.6 -log[mol/m^2s]. For the same compound, in the data set with H1299 cells (p53 null), the “ROS (ROS/ZMC1 ROS)” value is 1.2. Moreover, the “Refolding p53^R175H → wild type” value with p53^R175H is reported as “YES”. Moreover, the “hERG inhibition, in words” value at Human hERG is “strong hERG inhibition”. In data set [4], the “Activity against the sodium channel, in words” value is “showed activity”.
Regarding `C/C(=N\Nc1nc2ccccc2o1)c1ccccn1` [C2, (E)-2-(2-(1-(Pyridin-2-yl)ethylidene)hydrazinyl)benzo[d]oxazole], the “Ionophore Ji drug/Ji DMSO” value in the data set “Ionophore activity” is 11.8 -log[mol/m^2s]. Further, the “Cell kill in p53 wild type and p53 null cell lines” value in data set [5] was “almost no cell kill”. The “Refolding p53^R175H → wild type” value with p53^R175H was “induced a wild-type conformational change and YES”. Besides, the apparent permeability (Papp) at 90 min, 5 μM in the data set “Caco-2 permeability” turned out to be 10.6 ± 0.5 ×10⁻⁶ cm/s. For the same compound, the Aqueous solubility result in data set [3] was “low aqueous solubility”.
Turning to `C/C(=N\NC(=O)N1CCC1)c1ccccn1` [A6, (E)-N′-(1-(Pyridin-2-yl)ethylidene)azetidine-1-carbohydrazide], the “Ionophore Ji drug/Ji DMSO” value in the data set “Ionophore activity” was 12.9 -log[mol/m^2s].
The same measure, in the same setting: the value for `C/C(=N\Nc1nc2ccccc2s1)c1cc(OCCO)ccn1` [C61, (E)-2-((2-(1-(2-(Benzo[d]thiazol-2-yl)hydrazineylidene)ethyl)pyridin-4-yl)oxy)ethan-1-ol] was 11.6 -log[mol/m^2s].

Source of the values: publication PMC9278656 (Journal of medicinal chemistry, 2021).
